Values belong to the molecule of their own block, whether it stands above or below them.
Legend:
[1] = Photoluminescence quantum yield determination; type: physicochemical
Protocol: For the photoluminescence spectroscopy, all emission spectra were acquired on a Horiba Scientific PTI QuantaMaster fluorometer. Low temperature emission spectra were recorded by adding samples in 1:1 DCM:toluene into quartz EPR tubes and lowering the tube into an optical dewar filled with liquid N2. Excitation emission matrices were acquired on a Horiba Scientific Fluorolog-3 spectrofluorometer.
The samples, sealed in NMR tubes, were individually placed in an integrating sphere (Thorlabs, IS200-4) with a PbSe detector (Thorlabs, PDA20H) on one port and directly excited by an 808 nm diode laser (Thorlabs, M9-808-0150) of 15 W/cm^2 average intensity under 1 kHz square-wave modulation. The detector signal S, with and without a silicon window on the detector port, was recorded with the sample and with a DCM blank. […] The photoluminescence quantum yield is therefore SS,Si/(SD−SS)×( ? 808/ ? λS)×T^−1 where the subscripts S, D and Si respectively denote the sample, DCM blank, and silicon window. R is the wavelength-dependent PbSe detector responsivity, T is the total emission power transmitted by the silicon window, and λS is the average emission wavelength determined by integration of the spectrum. The detector responsivity is linear with wavelength in this spectral range so that ? 808/ ? λS=808/λS. Due to the spectral overlap between the sample emission and the soft absorption edge of silicon, we calculate T explicitly as ∫E(λ)dλ×
where E(λ) is the normalized sample emission spectrum and T(λ) is the T(λ) normalized silicon window transmission spectrum.
Comparative results for the diradical dication PtTTFtt against a conventional near IR dye (IR 26) provide PLQY of 0.09% in oxygenated 1,2-dichloroethane for compound 2 (PtTTFtt) in comparison to 0.05% for IR 26, as illustrated in FIG. 10.

[2] = Reactivity in the presence of small nucleophiles and ubiquitin (preliminary proteomics studies); conditions: ubiquitin
[3] = Cell viability assay after 72 hr treatment; type: cell-based; conditions: 1% DMSO solution, preliminary
Description: FIG. 21 is a cell viability assay of compound 4 after 72 hr treatment, using 1% DMSO solution in accordance with certain disclosed embodiments.

[4] = Stability of compound 4 (irradiation, air, serum, buffer, water); type: physicochemical
[5] = 1,2-dichloroethane, background statement; cited from earlier work
[6] = 1,2-dichloroethane, background statement; cited from earlier work; remark: listed apart in the source

photoluminescence quantum yield (PLQY) ([1]; oxygenated 1,2-dichloroethane): 0.09%
Molecule: [(Pt{dppe})2TTFtt][BAr^F4]2 [Compound 2]

integrity after exposure to proteins and small nucleophiles [2]: remains intact
stability to air, fetal bovine serum and phosphate buffer [4]: demonstrated
persistence of photoluminescence ([4]; continuous irradiation): 21 h
stability to water and air ([4]; crystallized out of 1:2 MeCN:water over 6 months): remarkable stability
Molecule: (Pt{1,5-cyclooctadiene})2 tetrathiafulvalene-2,3,6,7 tetrathiolate diradical dication [Compound 4]
toxicity [3]: nontoxic

photoluminescence quantum yield (PLQY) ([1]; 57 μM, dichloromethane, 298K, anaerobic conditions, highest of compounds 1-3): 0.43%
Molecule: [(Pt{P(4-CF3Ph)3}2)2TTFtt][BAr^F4]2 [Compound 3]

Molecule: ClC1=C(/C=C/c2cc(-c3ccccc3)[s+]c3ccccc23)CCC/C1=C\C=C1/C=C(c2ccccc2)Sc2ccccc21.[O-][Cl+3]([O-])([O-])[O-] [IR 26, 4-(7-(2-phenyl-4H-1-benzothiopyran-4-ylidene)-4-chloro-3,5-trimethylene-1,3,5-heptatrienyl)-2-phenyl-1-benzothiopyrylium perchlorate]
emission [5]: around 1130 nm
photoluminescence quantum yield (PLQY) ([1]; oxygenated 1,2-dichloroethane): 0.05%
PLQY [6]: 0.05%
